# Tested on: NCI-H716 cells
# Experiment: In vitro GLP-1 secretion-accelerating action: amount of active GLP-1 secreted (ELISA)
# Assay type: cell-based
# Settings: 1 hour; for Significant difference (p < 0.05) vs control group, amount of active GLP-1 secreted: 10 mM, Student's t-test; for Amount of active GLP-1 secreted (relative value to control group as 100), average value: cyclic dipeptide 10 mM with 10 μM Sitagliptin phosphate, group with no cyclic dipeptide = 100
# Experimental: Among the cyclic dipeptides, 92 highly water-soluble cyclic dipeptides were used in the following experiment. In each well of a Poly-L-Lysine 96-well plate, NCI-H716 cells suspended in 100 μL of a DMEM (with 10% FBS, 2 mM glutamine, and 1% antibiotics added in advance) were seeded at 0.5×10^5 cells/well, and cultured in a CO2 incubator (manufactured by ESPEC CORP.) for 48 hours. After washing with PBS(+), 100 μL of a PBS(+) solution with each cyclic dipeptide at a final concentration of 10 mM and 10 μM of Sitagliptin phosphate added therein was added to the cells. After 1 hour, the resultant solution was recovered, and the amount of active GLP-1 in the solution was measured by using the ELISA kit. In the analysis, the amount of active GLP-1 for a group with no cyclic dipeptide added was defined as 100, and relative values thereto were used.
smiles,measurement,setting,value
"O=C1N[C@@H](CO)C(=O)N[C@H]1CO [compound 1, Cyclo(Ser-Ser)]","Significant difference (p < 0.05) vs control group, amount of active GLP-1 secreted","Table 1, Experiment 1",No
same,"Amount of active GLP-1 secreted (relative value to control group as 100), average value","Table 1, Experiment 1",124
"O=C1CNC(=O)CN1 [compound 2, Cyclo(Gly-Gly)]","Significant difference (p < 0.05) vs control group, amount of active GLP-1 secreted","Table 5, Experiment 5",No
same,"Amount of active GLP-1 secreted (relative value to control group as 100), average value","Table 5, Experiment 5",151
"C[C@@H]1NC(=O)[C@H](C)NC1=O [compound 3, Cyclo(Ala-Ala)]","Significant difference (p < 0.05) vs control group, amount of active GLP-1 secreted","Table 1, Experiment 1",No
same,"Amount of active GLP-1 secreted (relative value to control group as 100), average value","Table 1, Experiment 1",95
"O=C1NCC(=O)N2CCC[C@@H]12 [compound 4, cyclo-glycyl-proline]","Significant difference (p < 0.05) vs control group, amount of active GLP-1 secreted","Table 5, Experiment 5",Yes
same,"Amount of active GLP-1 secreted (relative value to control group as 100), average value","Table 5, Experiment 5",157
"C[C@H]1NC(=O)[C@@H]2CCCN2C1=O [compound 5, Cyclo(D-Ala-Pro)]","Significant difference (p < 0.05) vs control group, amount of active GLP-1 secreted","Table 1, Experiment 1",No
same,"Amount of active GLP-1 secreted (relative value to control group as 100), average value","Table 1, Experiment 1",113
"O=C1[C@@H]2CCCN2C(=O)[C@@H]2CCCN12 [compound 6, Cyclo(Pro-Pro)]","Significant difference (p < 0.05) vs control group, amount of active GLP-1 secreted","Table 1, Experiment 1",No
same,"Amount of active GLP-1 secreted (relative value to control group as 100), average value","Table 1, Experiment 1",87
"O=C1N[C@@H](Cc2ccccc2)C(=O)N[C@H]1CO [compound 7, Cyclo(Phe-Ser)]","Significant difference (p < 0.05) vs control group, amount of active GLP-1 secreted","Table 1, Experiment 1",No
same,"Amount of active GLP-1 secreted (relative value to control group as 100), average value","Table 1, Experiment 1",106
"CC(C)[C@@H]1NC(=O)[C@@H]2CCCN2C1=O [compound 10, Cyclo(Val-Pro)]","Significant difference (p < 0.05) vs control group, amount of active GLP-1 secreted","Table 1, Experiment 1",No
same,"Amount of active GLP-1 secreted (relative value to control group as 100), average value","Table 1, Experiment 1",95
"CC(C)C[C@@H]1NC(=O)[C@@H]2CCCN2C1=O [compound 19, cyclo-leucyl-proline]","Significant difference (p < 0.05) vs control group, amount of active GLP-1 secreted","Table 1, Experiment 1",Yes
same,"Amount of active GLP-1 secreted (relative value to control group as 100), average value","Table 1, Experiment 1",173
"CC(C)C[C@@H]1NC(=O)CNC1=O [compound 21, Cyclo(Gly-Leu)]","Significant difference (p < 0.05) vs control group, amount of active GLP-1 secreted","Table 5, Experiment 5",No
same,"Amount of active GLP-1 secreted (relative value to control group as 100), average value","Table 5, Experiment 5",131
"C[C@@H]1NC(=O)[C@H](CCC(N)=O)NC1=O [compound 23, Cyclo(Ala-Gln)]","Significant difference (p < 0.05) vs control group, amount of active GLP-1 secreted","Table 5, Experiment 5",No
same,"Amount of active GLP-1 secreted (relative value to control group as 100), average value","Table 5, Experiment 5",99
"NC(=O)CC[C@@H]1NC(=O)CNC1=O [compound 24, Cyclo(Gln-Gly)]","Significant difference (p < 0.05) vs control group, amount of active GLP-1 secreted","Table 5, Experiment 5",No
same,"Amount of active GLP-1 secreted (relative value to control group as 100), average value","Table 5, Experiment 5",89
"O=C1CNC(=O)[C@H](Cc2cnc[nH]2)N1 [compound 27, Cyclo(Gly-His)]","Significant difference (p < 0.05) vs control group, amount of active GLP-1 secreted","Table 5, Experiment 5",No
same,"Amount of active GLP-1 secreted (relative value to control group as 100), average value","Table 5, Experiment 5",82
"O=C(O)C[C@@H]1NC(=O)CNC1=O [compound 32, Cyclo(Asp-Gly)]","Significant difference (p < 0.05) vs control group, amount of active GLP-1 secreted","Table 5, Experiment 5",Yes
same,"Amount of active GLP-1 secreted (relative value to control group as 100), average value","Table 5, Experiment 5",12
"NC(=O)CC[C@@H]1NC(=O)CNC1=O [compound 36, Cyclo(Gln-Gly)]","Significant difference (p < 0.05) vs control group, amount of active GLP-1 secreted","Table 5, Experiment 5",No
same,"Amount of active GLP-1 secreted (relative value to control group as 100), average value","Table 5, Experiment 5",75
"NCCCCC1NC(=O)C(CCCCN)NC1=O (centres unmarked) [compound 40, Cyclo(Lys-Lys)]","Significant difference (p < 0.05) vs control group, amount of active GLP-1 secreted","Table 1, Experiment 1",No
same,"Amount of active GLP-1 secreted (relative value to control group as 100), average value","Table 1, Experiment 1",164
"O=C(O)CCC1NC(=O)C2CCCN2C1=O (centres unmarked) [compound 45, Cyclo(Glu-Pro)]","Significant difference (p < 0.05) vs control group, amount of active GLP-1 secreted","Table 1, Experiment 1",No
same,"Amount of active GLP-1 secreted (relative value to control group as 100), average value","Table 1, Experiment 1",145
"O=C1NC(CO)C(=O)N2CCCC12 (centres unmarked) [compound 46, Cyclo(Ser-Pro)]","Significant difference (p < 0.05) vs control group, amount of active GLP-1 secreted","Table 2, Experiment 2",No
same,"Amount of active GLP-1 secreted (relative value to control group as 100), average value","Table 2, Experiment 2",139
"CC[C@H](C)[C@@H]1NC(=O)[C@@H]2CCCN2C1=O [compound 47, Cyclo(Ile-Pro)]","Significant difference (p < 0.05) vs control group, amount of active GLP-1 secreted","Table 2, Experiment 2",No
same,"Amount of active GLP-1 secreted (relative value to control group as 100), average value","Table 2, Experiment 2",79
"O=C1N[C@@H](Cc2c[nH]c3ccccc23)C(=O)N2CCC[C@@H]12 [compound 57, Cyclo(Trp-Pro)]","Significant difference (p < 0.05) vs control group, amount of active GLP-1 secreted","Table 2, Experiment 2",No
same,"Amount of active GLP-1 secreted (relative value to control group as 100), average value","Table 2, Experiment 2",81
"NCCCC[C@@H]1NC(=O)[C@@H]2CCCN2C1=O [compound 58, Cyclo(Lys-Pro)]","Significant difference (p < 0.05) vs control group, amount of active GLP-1 secreted","Table 2, Experiment 2",No
same,"Amount of active GLP-1 secreted (relative value to control group as 100), average value","Table 2, Experiment 2",91
"NCCCC[C@@H]1NC(=O)[C@H](Cc2c[nH]c3ccccc23)NC1=O [compound 59, cyclo-tryptophanyl-lysine]","Significant difference (p < 0.05) vs control group, amount of active GLP-1 secreted","Table 2, Experiment 2",Yes
same,"Amount of active GLP-1 secreted (relative value to control group as 100), average value","Table 2, Experiment 2",239
"NC(=O)CCC1NC(=O)C(Cc2ccccc2)NC1=O (centres unmarked) [compound 65, cyclo-glutaminyl-phenylalanine]","Significant difference (p < 0.05) vs control group, amount of active GLP-1 secreted","Table 2, Experiment 2",Yes
same,"Amount of active GLP-1 secreted (relative value to control group as 100), average value","Table 2, Experiment 2",227
"CC(C)CC1NC(=O)C(CCCCN)NC1=O (centres unmarked) [compound 68, Cyclo(Leu-Lys)]","Significant difference (p < 0.05) vs control group, amount of active GLP-1 secreted","Table 2, Experiment 2",No
same,"Amount of active GLP-1 secreted (relative value to control group as 100), average value","Table 2, Experiment 2",208
"C[C@@H]1NC(=O)[C@H](CCCCN)NC1=O [compound 69, Cyclo(Ala-Lys)]","Significant difference (p < 0.05) vs control group, amount of active GLP-1 secreted","Table 2, Experiment 2",No
same,"Amount of active GLP-1 secreted (relative value to control group as 100), average value","Table 2, Experiment 2",161
"O=C1NCC(=O)N2CC(O)CC12 (centres unmarked) [compound 73, Cyclo(Hyp-Gly)]","Significant difference (p < 0.05) vs control group, amount of active GLP-1 secreted","Table 2, Experiment 2",No
same,"Amount of active GLP-1 secreted (relative value to control group as 100), average value","Table 2, Experiment 2",121
"O=C1C2CC(O)CN2C(=O)C2CCCN12 (centres unmarked) [compound 74, Cyclo(Hyp-Pro)]","Significant difference (p < 0.05) vs control group, amount of active GLP-1 secreted","Table 2, Experiment 2",No
same,"Amount of active GLP-1 secreted (relative value to control group as 100), average value","Table 2, Experiment 2",115
"O=C1NC(Cc2c[nH]c3ccccc23)C(=O)NC1CO (centres unmarked) [compound 78, Cyclo(Trp-Ser)]","Significant difference (p < 0.05) vs control group, amount of active GLP-1 secreted","Table 2, Experiment 2",No
same,"Amount of active GLP-1 secreted (relative value to control group as 100), average value","Table 2, Experiment 2",119
"NCCCCC1NC(=O)CNC1=O (centres unmarked) [compound 96, cyclo-lysyl-glycine]","Significant difference (p < 0.05) vs control group, amount of active GLP-1 secreted","Table 3, Experiment 3",Yes
same,"Amount of active GLP-1 secreted (relative value to control group as 100), average value","Table 3, Experiment 3",133
"NCCCC[C@@H]1NC(=O)[C@H](CCC(=O)O)NC1=O [compound 97, Cyclo(Glu-Lys)]","Significant difference (p < 0.05) vs control group, amount of active GLP-1 secreted","Table 3, Experiment 3",No
same,"Amount of active GLP-1 secreted (relative value to control group as 100), average value","Table 3, Experiment 3",66
"NCCCC[C@@H]1NC(=O)[C@H](CO)NC1=O [compound 98, cyclo-seryl-lysine]","Significant difference (p < 0.05) vs control group, amount of active GLP-1 secreted","Table 3, Experiment 3",Yes
same,"Amount of active GLP-1 secreted (relative value to control group as 100), average value","Table 3, Experiment 3",71
"CC(C)[C@@H]1NC(=O)[C@H](CCCCN)NC1=O [compound 99, cyclo-valyl-lysine]","Significant difference (p < 0.05) vs control group, amount of active GLP-1 secreted","Table 3, Experiment 3",Yes
same,"Amount of active GLP-1 secreted (relative value to control group as 100), average value","Table 3, Experiment 3",532
"NCCCCC1NC(=O)C(CC(=O)O)NC1=O (centres unmarked) [compound 100, Cyclo(Asp-Lys)]","Significant difference (p < 0.05) vs control group, amount of active GLP-1 secreted","Table 3, Experiment 3",No
same,"Amount of active GLP-1 secreted (relative value to control group as 100), average value","Table 3, Experiment 3",116
"NCCCC[C@@H]1NC(=O)[C@H](CC(N)=O)NC1=O [compound 101, cyclo-asparaginyl-lysine]","Significant difference (p < 0.05) vs control group, amount of active GLP-1 secreted","Table 3, Experiment 3",Yes
same,"Amount of active GLP-1 secreted (relative value to control group as 100), average value","Table 3, Experiment 3",250

# Reference: US20170143701A1, “CARBOHYDRATE METABOLISM-AMELIORATING AGENT” (SUNTORY HOLDINGS LIMITED, priority 2014, published 2017)
